Key:
[1] = tested on: RNA 5 (RNA, riboswitch) CCGGCAUAGCUUCUCCUUUAAUGGUCCUAUGUCGAAAAUG; assay: native ESI MS with CAD top-down MS (Orbitrap); conditions: motif C occupancy reduced to ~60% in 1:3 complexes
[2] = tested on: RNA 4 (RNA, riboswitch) CCCUGAUAGCUUGUCCUUUAAUGGUCCUAUCUGGAAAAUG; assay: native ESI MS with CAD top-down MS (FT-ICR); conditions: NH4+ 50 mM (ammonium bicarbonate), no divalent ions; 9:1 H2O/CH3OH, 0.25 mM piperazine, pH ~7.5; 1 μM RNA, 1-5 μM neomycin B
[3] = tested on: RNA 3 (RNA, riboswitch) CCGUCAUAGCUUGUCCUUUAAUGGUCCUAUGACGAAAAUG; assay: native ESI MS with CAD top-down MS (FT-ICR); conditions: NH4+ 50 mM (ammonium bicarbonate), no divalent ions; 9:1 H2O/CH3OH, 0.25 mM piperazine, pH ~7.5; 1 μM RNA, 1-5 μM neomycin B
[4] = tested on: RNA 2 (RNA, riboswitch) CCGGCAUAGCUUGUCCUUUAAUGGUCCUAUGUCGAAAAUG; assay: native ESI MS with CAD top-down MS (FT-ICR); conditions: NH4+ 50 mM (ammonium bicarbonate), no divalent ions; 9:1 H2O/CH3OH, 0.25 mM piperazine, pH ~7.5; 1 μM RNA, 1-5 μM neomycin B; fourth molecule unspecific
[5] = tested on: 15N-labeled RNA 2 (RNA, riboswitch) CCGGCAUAGCUUGUCCUUUAAUGGUCCUAUGUCGAAAAUG; assay: 1H NMR imino proton titration; conditions: Na+ (25 mM NaCl, 15 mM sodium phosphate); pH 6.5, 15 °C, 10% D2O, 280 μM RNA, 0-4.5 equivalents; slow exchange in 0-1 equivalent range

Measured: binding

NC[C@@H]1O[C@H](O[C@H]2[C@@H](O)[C@H](O[C@@H]3[C@@H](O)[C@H](N)C[C@H](N)[C@H]3O[C@H]3O[C@H](CN)[C@@H](O)[C@H](O)[C@H]3N)O[C@@H]2CO)[C@H](N)[C@@H](O)[C@@H]1O
yes: all assays above

Source: PMC11077050 (2024)
